A word on the IC50: it is the concentration at which inhibition is half-maximal.

Positions of bridges follow the written chain, without caps; N, C: chain ends. Non-standard residues stand in square brackets, D forms with d. Residues, ends and D or L forms follow the SMILES beside them. Groups on a side chain read outwards from the residue. *: point of attachment. Acetyl(2-S-cholesteryl) = CC(C)CCC[C@@H](C)[C@H]1CC[C@H]2[C@@H]3CC=C4C[C@@H](SCC(=O)*)CC[C@]4(C)[C@H]3CC[C@]12C; PEG16 = NCCOCCOCCOCCOCCOCCOCCOCCOCCOCCOCCOCCOCCOCCOCCOCCOCCC(=O)O; R8 = C=CCCCCCC[C@@](C)(N)C(=O)O; S5 = C=CCCC[C@](C)(N)C(=O)O

We go through one compound from paper PMC10766962 (Nature Communications, 2024).

The subject of data set [1] is GFP-RSV live virus (RSV A2).

For the compound `CC[C@H](C)[C@H](NC(=O)[C@H](CO)NC(=O)[C@H](C)NC(=O)[C@H](CC(=O)O)NC(=O)[C@H](Cc1ccccc1)NC(C)=O)C(=O)N[C@@H](CO)C(=O)N[C@@H](CCC(N)=O)C(=O)N[C@H](C(=O)N[C@@H](CC(N)=O)C(=O)N[C@@H](CCC(=O)O)C(=O)N[C@@H](CCCCN)C(=O)N[C@H](C(=O)N[C@@H](CC(N)=O)C(=O)N[C@@H](CCC(N)=O)C(=O)N[C@@H](CO)C(=O)N[C@@H](CC(C)C)C(=O)N[C@]1(C)CCCCCCC=CCCC[C@@](C)(C(=O)N[C@@H](CC(C)C)C(=O)N[C@@H](CC(C)C)C(=O)N[C@@H](Cc2c[nH]cn2)C(=O)N[C@@H](CC(N)=O)C(=O)N[C@H](C(=O)N[C@@H](CCCCNC(=O)CCOCCOCCOCCOCCOCCOCCOCCOCCOCCOCCOCCOCCOCCOCCOCCOCCNC(=O)CS[C@H]2CC[C@@]3(C)C(=CC[C@H]4[C@@H]5CC[C@H]([C@H](C)CCCC(C)C)[C@@]5(C)CC[C@@H]43)C2)C(N)=O)C(C)C)NC(=O)[C@H](CC(=O)O)NC(=O)[C@H](CO)NC(=O)[C@H](CCCCN)NC(=O)[C@H](CCCNC(=N)N)NC(=O)[C@H]([C@@H](C)CC)NC(=O)[C@H](Cc2ccccc2)NC1=O)[C@@H](C)CC)C(C)C` [SLI-RSV] (Ac-FDASISQVNEKINQSL[R8]FIRKSD[S5]LLHNVK([PEG16-Acetyl(2-S-cholesteryl)])-NH2; staple 17-24), in the data set with A549 cells, the cytotoxicity result is listed as “no cytotoxicity”. This compound showed an IC50 in data set [1] of 58 nM.
